Measured values as given in the supplement of paper PMC4862054.

test system: CAL-120; assay: normalised viability (% of control), CellTiter-Blue; higher = more viable cells (about 100 = DMSO control); details: 10 nM; incubation time: 72 h
Description: (§1)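 DSRT, CellTiter-Blue viability, 72 h incubation. Signal is normalised to DMSO and benzethonium chloride controls. Value is the normalised response at dose 3.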

SMILES	normalised viability
COc1ncc(-c2ccc3nccc(-c4ccnnc4)c3c2)cc1NS(=O)(=O)c1ccc(F)cc1F	60.2%
Cn1c(=O)c(F)c(Nc2ccc(I)cc2F)c2c(=O)n(C[C@@H](O)CO)cnc21 [TAK-733]	92.7%
CCS(=O)(=O)c1cccc(-c2cc(C(=O)NC3CCN(C)CC3)c(C)c3[nH]c4ncc(C)cc4c23)c1 [TAK-901]	86.8%
COc1cccc2c1C(=O)c1c(O)c3c(c(O)c1C2=O)C[C@@](O)(C(C)=O)C[C@@H]3O[C@H]1C[C@H](N)[C@H](O)[C@H](C)O1 [Daunorubicin]	79%
CC(C)C[C@H](NC(=O)[C@H](Cc1ccccc1)NC(=O)c1cnccn1)B(O)O [Bortezomib]	27.3%

same assay, conditions: 100 nM; incubation time: 72 h

SMILES	normalised viability
COc1cc(Nc2ncc(F)c(Nc3ccc4c(n3)NC(=O)C(C)(C)O4)n2)cc(OC)c1OC [R406]	90.8%
COC1=CC(c2cc3ccccc3[nH]2)=N/C1=C\c1[nH]c(C)cc1C [Obatoclax]	25.9%
O=c1[nH]cc(F)c(=O)[nH]1 [Fluorouracil]	111%
CN1CCN(c2ccc3nc(-c4c(N)c5c(F)cccc5[nH]c4=O)[nH]c3c2)CC1 [Dovitinib]	86.4%
O=c1[nH]c(=O)n([C@H]2C[C@H](O)[C@@H](CO)O2)cc1F [Floxuridine]	66.2%
O=C(c1ccc(OCCN2CCCCC2)cc1)c1c(-c2ccc(O)cc2)sc2cc(O)ccc12 [Raloxifene]	102%

same assay, conditions: 1000 nM; incubation time: 72 h

SMILES	normalised viability
CS(=O)(=O)OCCCCOS(C)(=O)=O [Busulfan]	113%

test system: HDQ-P1; assay: as above; details: 1 nM; incubation time: 72 h
Description: as §1

SMILES	normalised viability
COc1ncc(-c2ccc3nccc(-c4ccnnc4)c3c2)cc1NS(=O)(=O)c1ccc(F)cc1F	97.9%
Cn1c(=O)c(F)c(Nc2ccc(I)cc2F)c2c(=O)n(C[C@@H](O)CO)cnc21 [TAK-733]	118%
CCS(=O)(=O)c1cccc(-c2cc(C(=O)NC3CCN(C)CC3)c(C)c3[nH]c4ncc(C)cc4c23)c1 [TAK-901]	114%
COc1cccc2c1C(=O)c1c(O)c3c(c(O)c1C2=O)C[C@@](O)(C(C)=O)C[C@@H]3O[C@H]1C[C@H](N)[C@H](O)[C@H](C)O1 [Daunorubicin]	153%
CC(C)C[C@H](NC(=O)[C@H](Cc1ccccc1)NC(=O)c1cnccn1)B(O)O [Bortezomib]	83.8%

same assay, conditions: 10 nM; incubation time: 72 h

SMILES	normalised viability
COc1cc(Nc2ncc(F)c(Nc3ccc4c(n3)NC(=O)C(C)(C)O4)n2)cc(OC)c1OC [R406]	107%
COC1=CC(c2cc3ccccc3[nH]2)=N/C1=C\c1[nH]c(C)cc1C [Obatoclax]	90.4%
O=c1[nH]cc(F)c(=O)[nH]1 [Fluorouracil]	103%
CN1CCN(c2ccc3nc(-c4c(N)c5c(F)cccc5[nH]c4=O)[nH]c3c2)CC1 [Dovitinib]	95.7%
O=c1[nH]c(=O)n([C@H]2C[C@H](O)[C@@H](CO)O2)cc1F [Floxuridine]	107%
O=C(c1ccc(OCCN2CCCCC2)cc1)c1c(-c2ccc(O)cc2)sc2cc(O)ccc12 [Raloxifene]	90.2%

same assay, conditions: 100 nM; incubation time: 72 h

SMILES	normalised viability
CS(=O)(=O)OCCCCOS(C)(=O)=O [Busulfan]	98.1%

test system: MDA-MB-231; assay: as above; details: 10 nM; incubation time: 72 h
Description: as §1

SMILES	normalised viability
COc1ncc(-c2ccc3nccc(-c4ccnnc4)c3c2)cc1NS(=O)(=O)c1ccc(F)cc1F	80%
Cn1c(=O)c(F)c(Nc2ccc(I)cc2F)c2c(=O)n(C[C@@H](O)CO)cnc21 [TAK-733]	54.9%
CCS(=O)(=O)c1cccc(-c2cc(C(=O)NC3CCN(C)CC3)c(C)c3[nH]c4ncc(C)cc4c23)c1 [TAK-901]	103%
COc1cccc2c1C(=O)c1c(O)c3c(c(O)c1C2=O)C[C@@](O)(C(C)=O)C[C@@H]3O[C@H]1C[C@H](N)[C@H](O)[C@H](C)O1 [Daunorubicin]	85.2%
CC(C)C[C@H](NC(=O)[C@H](Cc1ccccc1)NC(=O)c1cnccn1)B(O)O [Bortezomib]	16.2%

same assay, conditions: 100 nM; incubation time: 72 h

SMILES	normalised viability
COc1cc(Nc2ncc(F)c(Nc3ccc4c(n3)NC(=O)C(C)(C)O4)n2)cc(OC)c1OC [R406]	102%
COC1=CC(c2cc3ccccc3[nH]2)=N/C1=C\c1[nH]c(C)cc1C [Obatoclax]	47.7%
O=c1[nH]cc(F)c(=O)[nH]1 [Fluorouracil]	106%
CN1CCN(c2ccc3nc(-c4c(N)c5c(F)cccc5[nH]c4=O)[nH]c3c2)CC1 [Dovitinib]	80.2%
O=c1[nH]c(=O)n([C@H]2C[C@H](O)[C@@H](CO)O2)cc1F [Floxuridine]	97.4%
O=C(c1ccc(OCCN2CCCCC2)cc1)c1c(-c2ccc(O)cc2)sc2cc(O)ccc12 [Raloxifene]	89.3%

same assay, conditions: 1000 nM; incubation time: 72 h

SMILES	normalised viability
CS(=O)(=O)OCCCCOS(C)(=O)=O [Busulfan]	99.5%

test system: MFM-223; assay: as above; details: 10 nM; incubation time: 72 h
Description: as §1

SMILES	normalised viability
COc1ncc(-c2ccc3nccc(-c4ccnnc4)c3c2)cc1NS(=O)(=O)c1ccc(F)cc1F	53.1%
Cn1c(=O)c(F)c(Nc2ccc(I)cc2F)c2c(=O)n(C[C@@H](O)CO)cnc21 [TAK-733]	80.3%
CCS(=O)(=O)c1cccc(-c2cc(C(=O)NC3CCN(C)CC3)c(C)c3[nH]c4ncc(C)cc4c23)c1 [TAK-901]	81.8%
COc1cccc2c1C(=O)c1c(O)c3c(c(O)c1C2=O)C[C@@](O)(C(C)=O)C[C@@H]3O[C@H]1C[C@H](N)[C@H](O)[C@H](C)O1 [Daunorubicin]	90.9%
CC(C)C[C@H](NC(=O)[C@H](Cc1ccccc1)NC(=O)c1cnccn1)B(O)O [Bortezomib]	38.1%

same assay, conditions: 100 nM; incubation time: 72 h

SMILES	normalised viability
COc1cc(Nc2ncc(F)c(Nc3ccc4c(n3)NC(=O)C(C)(C)O4)n2)cc(OC)c1OC [R406]	96.4%
